What was measured:
Format in all cases: cell-based
Interferon-α = experiment: Induction of Interferon-α using cryopreserved human PBMCs; conditions: PBMC, 24 hours incubation, normalised to 1 μM resiquimod and DMSO, read-out: mean pEC50 for induction of Interferon-α (converted)
Method: Assay for the Induction of Interferon-α using Cryopreserved Human Peripheral Blood Mononuclear Cells (PBMCs)
Compounds were dissolved in DMSO. Serial 2-fold dilutions with DMSO were prepared and 0.25 μL dispensed into 384-well clear Greiner polypropylene plates.
Blood samples of up to 200 mL were obtained from healthy human donors. Whole blood in 25 mL volumes was overlaid onto 15 mL Ficoll gradients in Leucosep tubes, and centrifuged at 1000 g for 20 minutes. Cells in the band at the plasma/histopaque interface were carefully removed and washed twice with PBS (centrifuged at 400 g for 5 min to harvest). The final pellet was resuspended in freezing medium (90% Heat-inactivated serum, 10% DMSO) to a cell concentration of 4×10^7 cells/mL. The resuspended cells were then cryopreserved (frozen) using a rate controlled freezer, and stored at −140° C. for up to 4 months.
Incubation and Assay for Interferon-α
Immediately prior to assay, vials of cryopreserved (frozen) PBMCs were thawed rapidly in a water bath at 37° C. A 1:10 dilution of the cells in trypan blue was prepared and counted. The PBMCs were then diluted in growth media [RPMI 1640 containing 10% fetal calf serum (invitrogen), Penicillin+[…] (Gibco cat. #25030-024, 1:50), L-Glutamine 2 mM, and 1000 units/mL recombinant human IFN-gamma (Preprotech catalogue #300-02)] to a density of 1×10^6 cells/mL, and 50 uL/well dispensed to 384-well clear Greiner polypropylene plates containing 0.25 μL DMSO or test compound in 0.25 μL DMSO. […] Plates were incubated for 24 hours at 37° C. in 5% CO2.
A multi-isoform immunoassay was used to quantify IFN-α in PBMC supernatants. Rabbit polyclonal antibody against human IFN-α (catalogue number 31101, Stratech Scientific) was diluted 1:10000 in assay buffer (RPMI 1640 containing 10% fetal calf serum, Invitrogen) and 20 μL was added to each well of an MSD (Meso-Scale Discovery) single small-spot 384-well GAR (goat anti-rabbit antibody coated) plate. The plate was incubated for 1 hour at room temperature with vigorous shaking. Following three washes with PBS, 20 μL of cell supernatant were added to each well of the plate. The plate was then incubated for 1 hour at room temperature with vigorous shaking. A pair of monoclonal antibodies to IFN-α (catalogue numbers 21100 and 21112, Stratech Scientific) were labelled with sulfo-TAG (MSD), diluted 1:1000 in assay buffer and 20 μL added to each well of the plate. The plate was further incubated for 1 hour at room temperature with vigorous shaking. Following three washes with PBS, 30 μL of ×2 T buffer (MSD) was added to each well and the plate was read on an MSD Sector 6000 plate reader.
Data were normalised to internal plate controls of 1 μM resiquimod (n=16) and DMSO (n=16). pEC50 values were derived by 4-parameter curve fit with IRLS in ActivityBase, from 11-point, two-fold serial dilution of test compounds.

IFN-α = experiment: Induction of Interferon-α using fresh human PBMCs; conditions: PBMC, two donors, 24 hours incubation, percentage of 2 μM resiquimod control, read-out: pEC50 for induction of IFN-α (converted)
Method: (§1) Assay for the Induction of Interferon-α and TNF-α using Fresh Human Peripheral Blood Mononuclear Cells (PBMCs)
(§2) Compounds were dissolved and serially diluted in DMSO to give 100× the required concentration range using a Biomek 2000. 1 μL of test compound was transferred into 96-well tissue culture plates using a Biomek FX. Each compound was assayed in duplicate for each donor. Each plate contained a dilution series of the TLR7/8 agonist resiquimod as standard and Column 11 contained 1 μL of 200 μM resiquimod (giving a 2 μM final concentration, used to define the approximate maximal response to resiquimod).
(§3) Blood samples from two human donors were collected into sodium heparin (10 U/mL). 25 mL volumes of whole blood were overlaid onto 15 mL Histopaque in Leucosep tubes which were centrifuged at 800 g for 20 min and the band at the plasma/histopaque interface carefully removed. The collected cells were centrifuged at 2500 rpm for 10 min and the pellet resuspended in 10 mL of media (RPMI 1640 (Low endotoxin) supplemented with 10% v/v foetal calf serum (FCS, low endotoxin) 100 U/mL penicillin G, 100 μg/mL streptomycin, 10 mM L-glutamine and 1× non-essential amino acids). A 1:20 dilution of the cells was prepared using trypan blue and the cells counted using a haemocytometer. The PBMCs were diluted to give a final concentration of 2×10^6/mL and 100 μL of this cells suspension was added to wells containing 1 μL of diluted test compound.
(§4) Incubation and Assays for Interferon-α and TNF-α
(§5) The cell preparations were incubated for 24 hours (37° C., 95% air, 5% CO2) after which a sample of the supernatant was removed using the Biomek FX and assayed for both IFN-α and TNF-α using the MSD (Mesoscale Discovery) electrochemiluminescence assay platform. The IFN-α assay was carried out similarly to that described above. […]
(§6) Cytokine released was expressed as a percentage of the 2 μM resiquimod control (column 11). This percentage was plotted against compound concentration and the pEC50 for the response determined by non-linear least squares curve fitting. […]

TNF-α = experiment: Induction of TNF-α using fresh human PBMCs; conditions: PBMC, two donors, 24 hours incubation, percentage of 2 μM resiquimod control, read-out: pEC50 for induction of TNF-α (converted)
Method: as §1, §2, §3, §4, §5, §6

Row | EC50 (IFN-α) | EC50 (TNF-α) | Structure (SMILES) | EC50 (Interferon-α)
1 |  |  | CCCCOc1nc(N)c2[nH]c(=O)n(CCCC3CCCCN3CCO)c2n1 (centres unmarked) [Example 1, 6-Amino-2-(butyloxy)-9-[3-[1-(2-hydroxyethyl)-2-piperidinyl]propyl]-7,9-dihydro-8H-purin-8-one] | < 1580 nM
2 | 63.1 nM | 15.8 µM | CCCCOc1nc(N)c2[nH]c(=O)n(CC3CCCN(CCO)C3)c2n1 (centres unmarked) [Example 2, 6-Amino-2-(butyloxy)-9-{[1-(2-hydroxyethyl)-3-piperidinyl]methyl}-7,9-dihydro-8H-purin-8-one] | < 1580 nM
3 |  |  | CCCCOc1nc(N)c2[nH]c(=O)n(CCC3CCCN(CCO)C3)c2n1 (centres unmarked) [Example 3, 6-Amino-2-(butyloxy)-9-{2-[1-(2-hydroxyethyl)-3-piperidinyl]ethyl}-7,9-dihydro-8H-purin-8-one] | < 1580 nM
4 |  |  | CCCCOc1nc(N)c2[nH]c(=O)n(CCCC3CCCN(CCO)C3)c2n1 (centres unmarked) [Example 4, 6-Amino-2-(butyloxy)-9-{3-[1-(2-hydroxyethyl)-3-piperidinyl]propyl}-7,9-dihydro-8H-purin-8-one] | < 1580 nM
5 |  |  | CCCCOc1nc(N)c2[nH]c(=O)n(CCCCC3CCCN(CCO)C3)c2n1 (centres unmarked) [Example 5, 6-Amino-2-(butyloxy)-9-{4-[1-(2-hydroxyethyl)-3-piperidinyl]butyl}-7,9-dihydro-8H-purin-8-one] | < 1580 nM
6 |  |  | CCCCOc1nc(N)c2[nH]c(=O)n(CC3CCN(CCO)CC3)c2n1 [Example 6, 6-Amino-2-(butyloxy)-9-{[1-(2-hydroxyethyl)-4-piperidinyl]methyl}-7,9-dihydro-8H-purin-8-one] | < 1580 nM
7 |  |  | CCCCOc1nc(N)c2[nH]c(=O)n(CCC3CCN(CCO)CC3)c2n1 [Example 7, 6-Amino-2-(butyloxy)-9-{2-[1-(2-hydroxyethyl)-4-piperidinyl]ethyl}-7,9-dihydro-8H-purin-8-one] | < 1580 nM
8 |  |  | CCCCOc1nc(N)c2[nH]c(=O)n(CCCC3CCN(CCO)CC3)c2n1 [Example 8, 6-Amino-2-(butyloxy)-9-{3-[1-(2-hydroxyethyl)-4-piperidinyl]propyl}-7,9-dihydro-8H-purin-8-one] | < 1580 nM
9 |  |  | CCCCOc1nc(N)c2[nH]c(=O)n(CCCCC3CCN(CCO)CC3)c2n1 [Example 9, 6-Amino-2-(butyloxy)-9-{4-[1-(2-hydroxyethyl)-4-piperidinyl]butyl}-7,9-dihydro-8H-purin-8-one] | < 1580 nM
10 | 0.501 nM | 3.16 µM | CCCCOc1nc(N)c2[nH]c(=O)n(CCCCCC3CCN(CCO)CC3)c2n1 [Example 10, 6-Amino-2-(butyloxy)-9-{5-[1-(2-hydroxyethyl)-4-piperidinyl]pentyl}-7,9-dihydro-8H-purin-8-one] | < 1580 nM
11 |  |  | CCCCOc1nc(N)c2[nH]c(=O)n(CCCN3CCN(CCO)CC3)c2n1 [Example 11, 6-Amino-2-(butyloxy)-9-{3-[4-(2-hydroxyethyl)-1-piperazinyl]propyl}-7,9-dihydro-8H-purin-8-one] | < 1580 nM
12 |  |  | CCCCNc1nc(N)c2[nH]c(=O)n(CCCN3CCN(CCO)CC3)c2n1 [Example 12, 6-Amino-2-(butylamino)-9-[3-[4-(2-hydroxyethyl)-1-piperazinyl]propyl]-7,9-dihydro-8H-purin-8-one] | < 1580 nM
13 |  |  | CCCCOc1nc(N)c2[nH]c(=O)n(CCCCN3CCN(CCO)CC3)c2n1 [Example 13, 6-Amino-2-(butyloxy)-9-{4-[4-(2-hydroxyethyl)-1-piperazinyl]butyl}-7,9-dihydro-8H-purin-8-one] | < 1580 nM
14 |  |  | CCCCNc1nc(N)c2[nH]c(=O)n(CCCCN3CCN(CCO)CC3)c2n1 [Example 14, 6-Amino-2-(butylamino)-9-{4-[4-(2-hydroxyethyl)-1-piperazinyl]butyl}-7,9-dihydro-8H-purin-8-one] | < 1580 nM
15 |  |  | CCCCOc1nc(N)c2[nH]c(=O)n(CCCCCN3CCN(CCO)CC3)c2n1 [Example 15, 6-Amino-2-(butyloxy)-9-{5-[4-(2-hydroxyethyl)-1-piperazinyl]pentyl}-7,9-dihydro-8H-purin-8-one] | < 1580 nM
16 |  |  | CCCCOc1nc(N)c2[nH]c(=O)n(CCCCCN3CCN(CCOC)CC3)c2n1 [Example 16, 6-Amino-2-(butyloxy)-9-(5-{4-[2-(methyloxy)ethyl]-1-piperazinyl}pentyl)-7,9-dihydro-8H-purin-8-one] | < 1580 nM
17 | 15.8 nM | 5.01 µM | CCCCOc1nc(N)c2[nH]c(=O)n(CCCCCN3CCN(CCOCC)CC3)c2n1 [Example 17, 6-Amino-2-(butyloxy)-9-(5-{4-[2-(ethyloxy)ethyl]-1-piperazinyl}pentyl)-7,9-dihydro-8H-purin-8-one] | < 1580 nM

From patent US8575340B2, “Purine derivatives and their pharmaceutical uses” (GlaxoSmithKline LLC, priority 2010, dated 2013)
